In patent US9340577B2, “HLA binding motifs and peptides and their uses” (priority 1992, dated 2016):
No end group written: not given here.

How the values were obtained:
Experiment in all cases: biochemical
Type in all cases: binding
[1] = target: A31 (A*3101) (Homo sapiens, UniProt P04439, A270S/D185E/E176V/E277Q/F33T/G231S/G80R/H175R/I121M/I218V/I322F/K168Q/L300P/L318F/M331R/P217A/Q94H/R138Q/T323A/T345S/T97I/V358M)
[2] = target: HLA-A3.2 (A*0301) (Homo sapiens, UniProt P04439)
[3] = target: HLA-A11 (A*1101) (Homo sapiens, UniProt P04439, A114D/D185E/E176A/F33Y/L180Q/S129P/T187R)
[4] = target: A*6801 (Homo sapiens, UniProt P04439, A269V/D185E/E176V/E277Q/E87N/F33Y/G231S/I121M/I166T/I218V/L180W/L300P/L318F/N151K/P208A/P217A/Q86R/R169H/T345S)
[5] = target: A*3301 (Homo sapiens, UniProt P04439, A270S/D185E/E176V/E277Q/E87N/F33T/G231S/H175R/I121M/I218V/I322F/K168Q/K210R/L300P/L318F/M331R/P217A/Q86R/Q94H/R138Q/T323A/T345S/T97I/V358M/Y195H)

Row | Sequence | IC50 [1] [nM] | IC50 [2] [nM] | IC50 [3] [nM] | IC50 [4] [nM] | IC50 [5] [nM]
1 | AQVLHLLKRK [Peptide 1587.52] | 18200 | 339 | 308 | > 20000 | > 20000
2 | ATLESITKK [Peptide 78.0300] | 3200 | 56 | 18 | 1950 | > 20000
3 | ATMCRHYKR [Peptide 1587.08] | 10 | 90 | 28 | 60 | 42
4 | ATNKMFCQLAK [Peptide 1556.47] | 160 | 29 | 7.3 | 1620 | > 20000
5 | ATTPIIHLK [Peptide 1589.18] | 49 | 9.7 | 7.6 | 6.7 | 11200
6 | AVMCRHYKR [Peptide 1587.53] | 14 | 213 | 31 | 25 | 59
7 | AVNKMFCQLAK [Peptide 1556.46] | 284 | 55 | 10 | 1310 | > 20000
8 | CFFTRTWSR [Peptide 88.0382] | 4.3 | 13500 | 1490 | 52 | 3
9 | CTYSPALNR [Peptide 1556.42] | 17 | 27 | 9.6 | 19 | 8.6
10 | DLPSQIEHWK [Peptide 88.0212] | > 20000 | > 20000 | > 20000 | 25 | > 20000
11 | EFMSFLTALK [Peptide 1587.10] | 5960 | 477 | 683 | 20 | 21
12 | EFTAFLDAFK [Peptide 88.0179] | 16500 | 5790 | 968 | 127 | 14
13 | EFTAFLGAFK [Peptide 88.0167] | > 20000 | 4670 | 293 | 197 | 35
14 | EQNEALELK [Peptide 1556.69] | 2300 | 166 | 128 | 11800 | > 20000
15 | ESKKEVESK [Peptide 9017.0083] | > 20000 | > 20000 | 8040 | 158 | > 20000
16 | ETLNASPYK [Peptide 1589.39] | > 20000 | 163 | 27 | 28 | 4710
17 | ETQRQQFLK [Peptide 1589.32] | 3920 | 1010 | 28 | 30 | 80
18 | EVLMWKFDSR [Peptide 9017.0192] | 436 | > 20000 | 7630 | 2.8 | 62
19 | FADLTVVYR [Peptide 78.0318] | 1780 | 19200 | 9020 | 39 | 310
20 | FIHFRIGCR [Peptide 9017.0112] | 61 | 1010 | 7120 | 67 | 13
21 | FLSALKLFLK [Peptide 1587.38] | 984 | 715 | 165 | 1560 | 2590
22 | FLSQVKIPK [Peptide 1589.05] | 72 | 86 | 22 | 48 | 158
23 | FTAFLVAFK [Peptide 88.0389] | 663 | 45 | 15 | 23 | 76
24 | FTDLRIVYR [Peptide 1550.08] | 65 | 2940 | 10500 | 158 | 9.7
25 | GLGISYGRK [Peptide 1577.25] | > 20000 | 64 | 2150 | > 20000 | > 20000
26 | GLYYWCDGEK [Peptide 88.0229] | 5100 | 107 | 24 | 10000 | > 20000
27 | GSLQYLALK [Peptide 9017.0096] | 72 | 17 | 6.6 | 10000 | 14400
28 | GSQPKTACNK [Peptide 9017.0202] | 1480 | 472 | 30 | 15800 | > 20000

Row | Sequence | IC50 [1] [nM] | IC50 [2] [nM] | IC50 [3] [nM] | IC50 [4] [nM] | IC50 [5] [nM]
29 | GTAKSVTCTR [Peptide 1556.31] | 214 | 960 | 98 | 208 | 168
30 | GTFKCSAGK [Peptide 88.0373] | 617 | 23 | 14 | 81 | 18200
31 | GTMCRHYKR [Peptide 1587.34] | 20 | 611 | 31 | 56 | 226
32 | GTRQARKNRR [Peptide 9017.0200] | 56 | 1550 | 2920 | 1480 | 8370
33 | GTVFGILIKR [Peptide 9012.0243] | 46 | 2560 | 27 | 18 | 3130
34 | GVLILALLR [Peptide 88.0338] | 2300 | 2880 | 56 | 943 | 3890
35 | GVSIEWRKRR [Peptide 9017.0221] | 226 | > 20000 | 6320 | 8810 | 1680
36 | GVVFGILIKK [Peptide 9012.0242] | > 20000 | 484 | 17 | 146 | > 20000
37 | HLFDYSWYK [Peptide 76.0165] | 36 | 4.1 | 0.99 | 2.1 | 61
38 | HLFGYSYYK [Peptide 76.0191] | 1800 | 11 | 2.7 | 14 | 3470
39 | HLFRYSWYK [Peptide 76.0171] | 62 | 21 | 16 | 27 | 83
40 | HLFTYSWYK [Peptide 76.0164] | 35 | 4.9 | 7.7 | 19 | 137
41 | HLFWYSWYK [Peptide 76.0168] | 28 | 6.4 | 5.3 | 3.4 | 39
42 | HLYGYSWYK [Peptide 76.0153] | 48 | 12 | 11 | 16 | 61
43 | HSRIGILRQR [Peptide 9017.0242] | 9.8 | 637 | 6910 | 253 | 418
44 | ILLLLIRFK [Peptide 88.0386] | 48 | 120 | 1880 | 2500 | 402
45 | ILYQSNPYPK [Peptide 9017.0198] | 549 | 8.8 | 14 | 37 | 11000
46 | ISWLGLRSLK [Peptide 9012.0234] | 265 | 31 | 18 | 39 | 2500
47 | ISYGRKKRR [Peptide 9017.0079] | 36 | 9280 | > 20000 | 1360 | 1120
48 | ISYGRKKRRQK [Peptide 73.0314] | 3150 | 48 | 2810 | 4430 | > 20000
49 | ITVSAELPR [Peptide 1556.18] | 6930 | > 20000 | 739 | 25 | 8710
50 | ITYSDETQR [Peptide 88.0429] | 879 | 2960 | 165 | 26 | 1350
51 | KFYSKISEYR [Peptide 78.0081] | 48 | 1680 | 18000 | 264 | 79
52 | KGLGISYGRKK [Peptide 1577.23] | 49 | 23 | 6210 | > 20000 | > 20000
53 | KIDWLIKRIR [Peptide 9017.0248] | 19 | 8650 | 8630 | > 20000 | 6690
54 | KIKPPLPSVR [Peptide 9017.0234] | 8.1 | 1110 | 6950 | 14700 | 3440
55 | KISEYRHYCY [Peptide 78.0082] | 4850 | 152 | 163 | 2000 | 2350
